Here are results for 2 compounds from ChEMBL document CHEMBL1142808, “O-Methylglucogalloyl esters: synthesis and evaluation of their antimycotic activity” (2005).

Holding throughout (assay type): functional
Assay [1] has as its system Candida albicans. In words: Minimum inhibitory concentration (mixture of alpha and beta) against Candida albicans DBVPG 6133.
For assay [2], the system named is Nakaseomyces glabratus. In words: Minimum inhibitory concentration (mixture of alpha and beta) against Candida glabrata DBVPG 3828.
The nature of assay [3]: Minimum inhibitory concentration (mixture of alpha and beta) against Issatchenkia orientalis DBVPG 6782. The following applies: Pichia kudriavzevii.
The subject of assay [4] is Candida albicans. As to the kind of experiment: Minimum inhibitory concentration in association with methyl gallate (36.8 µg/mL) against Candida albicans DBVPG 6133.
The test system of assay [5] is Nakaseomyces glabratus. As to the kind of experiment: Minimum inhibitory concentration against Candida glabrata DBVPG 3828.
Assay [6] in a line: Minimum inhibitory concentration in association with methyl gallate (36.8 µg/mL) against Issatchenkia orientalis DBVPG 6782. To be noted: Pichia kudriavzevii.
The test system of assay [7] is Candida albicans. As to the kind of experiment: Minimum inhibitory concentration against Candida albicans DBVPG 6133.
Assay [8] has as its system Candida albicans. As to the kind of experiment: Minimum inhibitory concentration in association with gallic acid (34.0 µg/mL) against Candida albicans DBVPG 6133.
Assay [9] in a line: Minimum inhibitory concentration against Issatchenkia orientalis DBVPG 6782. The following applies: Pichia kudriavzevii.
The nature of assay [10]: Minimum inhibitory concentration in association with mixture of alpha/beta O-methylgluco-2,3-digalloyl ester (49.8 µg/mL) against Issatchenkia orientalis DBVPG 6782. The following applies: Pichia kudriavzevii.
Assay [11] concerns Nakaseomyces glabratus. In words: Minimum inhibitory concentration in association with methyl gallate (36.8 µg/mL) against Candida glabrata DBVPG 3828.
Assay [12] in a line: Minimum inhibitory concentration in association with gallic acid (34.0 µg/mL) against Issatchenkia orientalis DBVPG 6782. To be noted: Pichia kudriavzevii.
In assay [13] the test system is Nakaseomyces glabratus. As to the kind of experiment: Minimum inhibitory concentration in association with gallic acid (34.0 µg/mL) against Candida glabrata DBVPG 3828.
The test system of assay [14] is Candida albicans. As to the kind of experiment: Minimum inhibitory concentration in association with mixture of alpha/beta O-methylgluco-2,3-digalloyl ester (49.8 µg/mL) against Candida albicans DBVPG 6133.
Assay [15] deals with Nakaseomyces glabratus. In words: Minimum inhibitory concentration in association with mixture of alpha/beta O-methylgluco-2,3-digalloyl ester (49.8 µg/mL) against Candida glabrata DBVPG 3828.

Structures are written as SMILES. ≈ marks a conversion by molar mass, not a printed value. Bounds are passed on as bounds.

For the compound `COC1O[C@H](CO)[C@@H](O)[C@H](OC(=O)c2cc(O)c(O)c(O)c2)[C@H]1OC(=O)c1cc(O)c(O)c(O)c1` (stereo not given in full), the MIC was 1940 µg/mL (≈ 3890 µM) with Candida albicans [1], greater than 4670 µg/mL in the assay with Nakaseomyces glabratus [2] and greater than 4670 µg/mL in [3].

As for `C[C@@H]1[C@H](O)[C@@H](C)/C=C/C=C/C=C/C=C/C=C/C=C/C=C/[C@H](O[C@@H]2O[C@H](C)[C@@H](O)[C@H](N)[C@@H]2O)C[C@@H]2O[C@](O)(C[C@@H](O)C[C@@H](O)[C@H](O)CC[C@@H](O)C[C@@H](O)CC(=O)O[C@H]1C)C[C@H](O)[C@H]2C(=O)O` [AMPHOTERICIN B], the MIC is 0.09 µg/mL (≈ 0.0974 µM) in the assay with Candida albicans [4]; 1.06 µg/mL (≈ 1.15 µM) with Nakaseomyces glabratus [5]; 45 µg/mL (≈ 48.7 µM) in assay [6]; 1.06 µg/mL (≈ 1.15 µM) against Candida albicans [7]; 0.09 µg/mL (≈ 0.0974 µM) in the assay on Candida albicans [8]; greater than 100 µg/mL in assay [9]. Besides, the MIC in assay [10] came out at 2.05 µg/mL (≈ 2.22 µM); with Nakaseomyces glabratus [11] it was 0.09 µg/mL (≈ 0.0974 µM); in [12], 8 µg/mL (≈ 8.66 µM); against Nakaseomyces glabratus [13], 1 µg/mL (≈ 1.08 µM); with Candida albicans [14], 0.05 µg/mL (≈ 0.0541 µM); in the assay with Nakaseomyces glabratus [15], 0.05 µg/mL (≈ 0.0541 µM).

Usually MIC stands for the least concentration at which growth counts as inhibited.
